In US9476099B2 (TRUSTEES OF DARTMOUTH COLLEGE, priority 2012, dated 2016):
Where “and” joins values, the source holds several entries; their conditions need not be identical. Equal values may be shown once.

Test system: NT2/D1-R1 control and DNMT3B knockdown cells
Assay: Genome-wide expression analysis with PAM clusters, control and DNMT3B knockdown cells (Tables 8-14)
Conditions: sh-Ctrl + aza
[1] = NT2/D1-R1, decitabine 10 nM 3 days

## Nc1ncn([C@H]2C[C@H](O)[C@@H](CO)O2)c(=O)n1 [aza]
10 nM decitabine, 3 days
  LOC644422 XR_019449 expression Mean: 332.598
  LOC647954 XR_018676 expression Mean: 1348.27
  LOC728715 XM_0011282 expression Mean: 1760.28
  M6PRBP1 NM_005817 expression Mean: 2017.94
  MBNL3 NM_133486 expression Mean: 338.893
  MCM4 NM_005914 expression Mean: 2945.56
  MEPCE NM_019606 expression Mean: 786.84
  METTL1 NM_005371 expression Mean: 412.423
  MORF4L2 NM_012286 expression Mean: 1621.68
  MRTO4 NM_016183 expression Mean: 893.853
  MT1E NM_175617 expression Mean: 2437.55
  MTA2 NM_004739 expression Mean: 453.486
  MYOF NM_013451 expression Mean: 302.746
  MYOF NM_133337 expression Mean: 612.957
  NACC2 NM_144653 expression Mean: 566.307
  NAT5 NM_181528 expression Mean: 1401.34
  NBPF10 NM_0010376 expression Mean: 816.642
  NBPF10 NM_0010397 expression Mean: 557.142
  NEFH NM_021076 expression Mean: 538.551
  NFE2 NM_006163 expression Mean: 459.796
  NM_002467 expression Mean: 896.83
  NM_0010397 expression Mean: 736.286
  NM_138781 expression Mean: 484.429
  NODAL NM_018055 expression Mean: 954.925
  NOP2 NM_0010337 expression Mean: 7589.18
  NOP56 NM_006392 expression Mean: 1764.44
  NP NM_000270 expression Mean: 475.426
  NR_002773 expression Mean: 596.315
  NR_003287 expression Mean: 634.816
  NTF3 NM_002527 expression Mean: 286.374
  NTS NM_006183 expression Mean: 641.496
  NUAK2 NM_030952 expression Mean: 309.88 and 403.382
  OAT NM_000274 expression Mean: 2902.41
  ODC1 NM_002539 expression Mean: 3243.03
  PAK1IP1 NM_017906 expression Mean: 644.744
  PEA15 NM_003768 expression Mean: 2263.16
  PEG3 NM_006210 expression Mean: 442.766
  PITX1 NM_002653 expression Mean: 947.042
  PLAU NM_002658 expression Mean: 1093.87
  PLEKHF1 NM_024310 expression Mean: 716.406
  POLR1C NM_203290 expression Mean: 533.492 and 971.221
  PPA2 NM_006903 expression Mean: 1058.5
  PPAN NM_002566 expression Mean: 615.062
  RBM22 NM_018047 expression Mean: 921.101
  RNMTL1 NM_018146 expression Mean: 708.14
  RPL6 NM_0010246 expression Mean: 1189.55
  RRM2 NM_001034 expression Mean: 697.476
  RSL1D1 NM_015659 expression Mean: 1413.6
  RUNX3 NM_004350 expression Mean: 484.199
  SERPINE1 NM_000602 expression Mean: 539.652
  SERTAD1 NM_013376 expression Mean: 534.101
  SFXN4 NM_213649 expression Mean: 724.081
  SIDT2 NM_0010404 expression Mean: 528.693
  SLC20A1 NM_005415 expression Mean: 1468.1
  SNAPC4 NM_003086 expression Mean: 1200.9
  SOCS2 NM_003877 expression Mean: 288.614 and 566.518
  SOX15 NM_006942 expression Mean: 2791.76
  SPANXD NM_145665 expression Mean: 210.19
  SPRYD5 NM_032681 expression Mean: 519.493
  SQSTM1 NM_003900 expression Mean: 2145.19
  SRRT NM_015908 expression Mean: 4196.33
  SUSD2 NM_019601 expression Mean: 2570.13
  TAGLN NM_003186 expression Mean: 1178.17
  TNFRSF12A NM_016639 expression Mean: 519.778
  TNFRSF13B NM_012452 expression Mean: 179.31
  TNPO1 NM_153188 expression Mean: 439.283
  TPRG1L NM_182752 expression Mean: 1513.68
  TRIM8 NM_030912 expression Mean: 922.659
  TTC4 NM_004623 expression Mean: 1457.62
  UTP14A NM_006649 expression Mean: 555.285
  WBSCR22 NM_017528 expression Mean: 1107.76
  XM_0011261 expression Mean: 718.505
  XM_0011281 expression Mean: 2231.09
  XR_015970 expression Mean: 1080.49
  XR_016703 expression Mean: 6659.76
  XR_017241 expression Mean: 10363
  XR_017543 expression Mean: 832.234
  ZDHHC6 NM_022494 expression Mean: 528.208
  ZHX2 NM_014943 expression Mean: 479.456
[1]
  A4GALT (NM_017436) gene expression, Mean: 174.249
  ABR (NM_001092) gene expression, Mean: 424.634
  ACACA (NM_198836) gene expression, Mean: 443.13
